# In article PMC10265666, “Lung SPLUNC1 Peptide Derivatives in the Lipid Membrane Headgroup Kill Gram-Negative Planktonic and Biofilm Bacteria” (Biomacromolecules, 2023):
# Several values for one entry are separate records, joined by “and”; a condition that tells them apart may be missing. Equal values may be shown once.
# Assays:
# [1] = system: Klebsiella pneumoniae biofilms; test: Biofilm growth (crystal violet); assay type: cell-based
# Experimental: Minimum inhibitory concentration (MIC, defined as the minimum AMP concentration to prevent bacterial growth) and biofilm data were obtained by UV–vis spectroscopy using a BioTek Epoch 2 microplate reader.
# The planktonic samples in the wells were then drained by inversion of the plate. The plate was washed with PBS prior to staining with 125 μL of 0.5% Crystal Violet (in 20% ethanol) for 15 min. Excess stain was removed by washing twice with distilled water. The bacterial remnants on the walls of the wells were analyzed at λ = 620 nm to observe any adhered bacteria. The absorbance values as percent of control (no AMP) do show a tendency of bacterial adherence to the wells. In this work, we will refer to the adhered bacteria after incubation at 37 °C for 16 h as biofilms.
# [2] = system: 3T3 fibroblast cells; assay type: cell-based, murine
# Experimental: The TetraZ cell counting kit was used to quantify cell proliferation and cell viability. It is based on a water-soluble tetrazolium salt, which, when reduced by cellular dehydrogenases, produces a chromophore. ∼5 × 10^4 immortalized mouse RAW 264.7 macrophages and 3T3 fibroblast cells were incubated in a 96-well plate and allowed to attach for 24 h. AMPs in cell culture medium (DMEM D5796, 10% FBS, 1% P/S) were added to the wells. Cells were incubated at 37 °C for 4 h with the SPLUNC1 peptide derivatives at 8, 16, 32, and 64 μM concentrations. 10 μL of TetraZ was added and incubated for an additional 1.5 h at 37 °C. A Biotek Epoch 2 visible spectrophotometer was used to read the absorbance. The absorbance by the chromophore at λ = 450nm is proportional to the number of live cells (see standard curves, Figures S1 and S2, and additional cell line results (Figures S3 and S4) in the S.I.).
# [3] = Circular dichroism secondary structure in G(−)IM ULVs; assay type: physicochemical; conditions: 10 μM peptide, 15 mM PBS pH 7, 37 °C
# Experimental: Unilamellar vesicles (ULVs) of ∼600 Å diameter were prepared using an Avanti extruder: 200 μL of 20 mg/ml G(−)IM lipid in 15 mM PBS was extruded 21 times through Nucleopore filters of size 500 Å using 0.2 mL Hamilton syringes in the Avanti extruder. The final concentration of G(−)IM lipid in the ULVs was determined gravimetrically to be 15 mg/ml. Concentrated ULVs were added to 3 mL of 10 μM peptide in 15 mM PBS at pH 7 to create lipid/peptide molar ratios between 0:1 and 70:1. The samples remained at room temperature for ∼16 h before the CD measurement. Data were collected in 3 mL quartz cuvettes using a Jasco 1500 CD spectrophotometer at 37 °C in the Center for Nucleic Acids Science and Technology at Carnegie Mellon University. The samples were scanned from 200 to 240 nm 20 times, and the ellipticity (ϵ) results were averaged. Temperature was controlled at 37 °C via a Peltier element and water circulation through the sample compartment. Nitrogen gas was used at a flow rate between 20 and 25 ft^3/h (CFH). The parameters for scanning were: speed 100 nm/min, step size 1.0 nm, response time 1 second, bandwidth 1 nm, and sensitivity of 20 mdeg. OriginPro 2019 (OriginLab, Northampton, MA) was used to carry out a linear least-squares fit of the smoothed ellipticity traces to four secondary structural motifs representing α-helix, β-sheet, β-turn, and random coil.[20] This analysis gives a percentage match of each of the secondary structural motifs to the total sample ellipticity. Data were finally converted to mean residue ellipticity, taking into account the peptide concentration (10 μMolar) and number of amino acids (N), using the equation: MRE = (10^4/N)ϵ deg cm^2/dmol.
# [4] = Circular dichroism secondary structure in Euk33 ULVs; assay type: physicochemical; conditions: 10 μM peptide, 15 mM PBS pH 7, 37 °C
# [5] = system: eukaryotic cells vs bacteria; test: Therapeutic index (eukaryotic cell kill concentration / bacterial kill concentration); assay type: cell-based
# Experimental: But more important than cytotoxicity is the therapeutic index (TI), which is the concentration at which ≥90% of eukaryotic cells are killed divided by the concentration at which ≥90% of bacteria are killed. For A4-153, this TI value is an estimated ≈ 128 μM/16 μM ≈ 8. TI for A4-157 is an estimated 128 μM/24 μM ≈ 5, and the TI for A4-183 is an estimated 64 μM/20 μM ≈ 3.
# [6] = G(−)IM/peptide molar ratio 10:1
# [7] = G(−)IM/peptide molar ratio 15:1
# [8] = G(−)IM/peptide molar ratio 20:1
# [9] = G(−)IM/peptide molar ratio 30:1
# [10] = G(−)IM/peptide molar ratio 50:1
# [11] = G(−)IM/peptide molar ratio 70:1
structure (smiles),measurement,setting,value
CC[C@H](C)[C@H](NC(=O)[C@@H](NC(=O)[C@H](CO)NC(=O)[C@H](CCCCN)NC(=O)[C@@H](NC(=O)[C@H](CCCCN)NC(=O)CNC(=O)[C@H](Cc1c[nH]c2ccccc12)NC(=O)[C@@H](NC(=O)CNC(=O)CNC(=O)[C@@H](NC(=O)[C@H](Cc1c[nH]c2ccccc12)NC(=O)CNC(=O)[C@H](CCCCN)NC(=O)[C@@H](NC(=O)[C@H](CCCCN)NC(=O)[C@H](CCCCN)NC(=O)[C@H](Cc1ccccc1)NC(=O)[C@H](Cc1ccccc1)NC(=O)[C@H](CCCCN)NC(=O)[C@H](CCCCN)NC(=O)[C@@H](N)CC(C)C)C(C)C)C(C)C)C(C)C)C(C)C)C(C)C)C(=O)N[C@@H](CCCCN)C(=O)O (stereo in doubt) [A4-153],prevention of biofilm formation,"[1]; 25 K. pneumoniae substrains, 16 h at 37 °C, crystal violet, 620 nm",generally more efficient than the other peptides at preventing biofilm formation
same,number of colistin-resistant substrains in which the peptide was the most effective at inhibiting biofilm formation,"[1]; out of 11 colistin-resistant substrains, at ∼16 μM",eight
same,number of colistin-susceptible substrains in which the peptide was the most effective at inhibiting biofilm formation,"[1]; out of 13 colistin-susceptible substrains, at ∼16 μM",seven
same,concentration required for 0% viable cells (estimate),[2],128 µM
same,viable cells compared to the control,[2]; 64 µM,~30%
same,Random,[3]; G(−)IM/peptide molar ratio 0:1,57.7%
same,α-helix,[3]; G(−)IM/peptide molar ratio 0:1,6.4%
same,β-sheet,[3]; G(−)IM/peptide molar ratio 0:1,34.2%
same,β-turn,[3]; G(−)IM/peptide molar ratio 0:1,1.7%
same,Random,[3]; G(−)IM/peptide molar ratio 1:1,51.7%
same,α-helix,[3]; G(−)IM/peptide molar ratio 1:1,11.9%
same,β-sheet,[3]; G(−)IM/peptide molar ratio 1:1,32.4%
same,β-turn,[3]; G(−)IM/peptide molar ratio 1:1,4.0%
same,Random,[3]; G(−)IM/peptide molar ratio 5:1,62.9%
same,α-helix,[3]; G(−)IM/peptide molar ratio 5:1,10.2%
same,β-sheet,[3]; G(−)IM/peptide molar ratio 5:1,26.9%
same,β-turn,[3]; G(−)IM/peptide molar ratio 5:1,0%
same,Random,[3]; [6],62.5%
same,α-helix,[3]; [6],14.8%
same,β-sheet,[3]; [6],17.7%
same,β-turn,[3]; [6],5.0%
same,Random,[3]; [7],15.6%
same,α-helix,[3]; [7],41.9%
same,β-sheet,[3]; [7],41.2%
same,β-turn,[3]; [7],1.3%
same,Random,[3]; [8],0%
same,α-helix,[3]; [8],78.3%
same,β-sheet,[3]; [8],8.0%
same,β-turn,[3]; [8],13.7%
same,Random,[3]; [9],4.6%
same,α-helix,[3]; [9],78.5%
same,β-sheet,[3]; [9],10.2%
same,β-turn,[3]; [9],6.7%
same,Random,[3]; [10],0%
same,α-helix,[3]; [10],77.4%
same,β-sheet,[3]; [10],13.6%
same,β-turn,[3]; [10],9.0%
same,Random,[3]; [11],0%
same,α-helix,[3]; [11],64.1%
same,β-sheet,[3]; [11],15.1%
same,β-turn,[3]; [11],20.8%
same,Random,[4]; Euk33/peptide molar ratio 0:1,57.7%
same,α-helix,[4]; Euk33/peptide molar ratio 0:1,6.4%
same,β-sheet,[4]; Euk33/peptide molar ratio 0:1,34.2%
same,β-turn,[4]; Euk33/peptide molar ratio 0:1,1.7%
same,Random,[4]; Euk33/peptide molar ratio 5:1,66.2%
same,α-helix,[4]; Euk33/peptide molar ratio 5:1,9.7%
same,β-sheet,[4]; Euk33/peptide molar ratio 5:1,24.1%
same,β-turn,[4]; Euk33/peptide molar ratio 5:1,0%
same,Random,[4]; Euk33/peptide molar ratio 10:1,64.2%
same,α-helix,[4]; Euk33/peptide molar ratio 10:1,12.2%
same,β-sheet,[4]; Euk33/peptide molar ratio 10:1,23.6%
same,β-turn,[4]; Euk33/peptide molar ratio 10:1,0%
same,Random,[4]; Euk33/peptide molar ratio 20:1,60.4%
same,α-helix,[4]; Euk33/peptide molar ratio 20:1,14.1%
same,β-sheet,[4]; Euk33/peptide molar ratio 20:1,25.5%
same,β-turn,[4]; Euk33/peptide molar ratio 20:1,0%
same,Random,[4]; Euk33/peptide molar ratio 30:1,57.5%
same,α-helix,[4]; Euk33/peptide molar ratio 30:1,16.2% and 16%
same,β-sheet,[4]; Euk33/peptide molar ratio 30:1,26.3%
same,β-turn,[4]; Euk33/peptide molar ratio 30:1,0%
same,Random,[4]; Euk33/peptide molar ratio 70:1,51.3%
same,α-helix,[4]; Euk33/peptide molar ratio 70:1,20.5%
same,β-sheet,[4]; Euk33/peptide molar ratio 70:1,28.2%
same,β-turn,[4]; Euk33/peptide molar ratio 70:1,0%
same,concentration at which ≥90% of bacteria are killed,[5]; denominator of TI,16 µM
same,concentration at which ≥90% of eukaryotic cells are killed (estimated),[5]; numerator of TI,≈ 128 μM
